Results as given in US20240082212A1, “USE OF MDMA FOR TREATMENT OF STRESS-RELATED DISORDERS” (priority 2022, published 2024).
Entries after “also recorded” stand apart in the source; their conditions may differ.

How the values were obtained:
[1] = target: Serotonin 5-HT2A (Homo sapiens, UniProt P28223); assay: Eurofins Panlabs radioligand binding panel, serotonin 5-HT2A
[2] = target: T1, Serotonin 5-HT2C (Homo sapiens, UniProt P28335); assay: biochemical; format: binding; conditions: read-out: % inhibition of binding or activity
T1 sequence (P28335 33-458): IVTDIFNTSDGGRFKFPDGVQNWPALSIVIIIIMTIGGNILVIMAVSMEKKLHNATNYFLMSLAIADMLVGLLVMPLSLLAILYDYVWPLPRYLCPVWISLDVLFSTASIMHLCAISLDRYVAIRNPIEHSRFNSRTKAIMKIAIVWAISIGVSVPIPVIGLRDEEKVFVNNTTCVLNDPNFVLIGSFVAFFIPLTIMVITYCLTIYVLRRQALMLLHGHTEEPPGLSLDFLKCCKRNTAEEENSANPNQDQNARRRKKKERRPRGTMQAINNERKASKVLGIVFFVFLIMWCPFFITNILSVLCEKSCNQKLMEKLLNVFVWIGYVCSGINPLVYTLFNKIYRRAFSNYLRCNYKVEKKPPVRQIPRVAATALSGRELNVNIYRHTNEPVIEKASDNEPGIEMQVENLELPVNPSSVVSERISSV

[3] = system: CD (Sprague Dawley) rats; assay: Rat functional observation battery (FOB) neurobehavioral evaluation after cumulative SC dosing; format: in vivo; conditions: for arousal/alertness and rearing / ease of removal from the home cage and handling reactivity (excitability) / forelimb grip strength / salivation and erected fur (autonomic) / unkempt appearance: R-MDMA and racemic MDMA 10, 20 mg/kg/day; for stereotypies (mouth movements/weaving, circling/retropulsion, sniffing): highest doses: S-MDMA 10, racemic-MDMA 20 mg/kg/day, R-MDMA 10, 20 mg/kg/day; for Rank Order Activity Measurement Effects / Rank Order Autonomic Measurement Effects / Rank Order Excitability Measurement Effects / Rank Order Neuromuscular Measurement Effects / Rank Order Physiological Measurement Effects / Rank Order Sensorimotor Measurement Effects: FOB, cumulative SC dosing, dose groups stated in the value; for thermal response times: at levels at least two-fold that of vehicle-treated groups
Protocol: The observations were assessed through a rat functional observation battery (FOB) and continuous physiological measurements on the day of cumulative dosing, which are provided in further detail below.
Methods. A total of 42 adult male CD® (Sprague Dawley) rats (Charles River Laboratories) were surgically implanted with DSI radiotelemetry devices by personnel at Charles River Laboratories Raleigh, NC, per their test site SOPs. Telemetry devices supported continuous recording of temperature, activity, blood pressure and heart rate. Telemeterized rats were shipped to the Charles River Laboratories testing facility (Mattawan, MI) and acclimated to the environment for at least 1 week prior to experimentation. Animals were pair-housed in solid bottom cages with nonaromatic bedding. On the dosing day, animals were singly housed and then returned to the paired cohort following the dosing/telemetry recording phase. Diet (Lab Diet® Certified Rodent Diet #5CR4) and tap water via an automatic water system were available ad libitum, except during designated procedures. Temperature and humidity were maintained according to the Testing Facility SOP. Animals were randomized into treatment groups using a standard, by weight, measured value randomization procedure. Body weight was determined for each rat prior to dosing.
As illustrated in the Table, a total of 36 rats were included in the study. The vehicle and 2 test article doses were administered in a volume of 1 mL/kg to each of 3 groups of n=12 telemeterized rats via subcutaneous injection four times on a given day, followed by neurobehavioral evaluations. This series was repeated 3 times on study. Each group received all 3 dose levels of the applicable test or control article in ascending order with a 1-week washout between dose levels.
Mortality/cage side clinical observations were conducted for all study animals at least twice daily beginning upon receipt through termination, except on days of receipt and termination where frequency was at least once daily. Detailed clinical observations were conducted for all study animals prior to each of the four cumulative doses in a series. Individual body weights were conducted for all study animals at transfer, prior to randomization, on the day of dosing on each of the 3 cycles of dosing. The body weights recorded at transfer and prior to randomization are not reported but are maintained in the study file. Veterinary care was available throughout the course of the study, and animals were examined by the veterinary staff as needed based on clinical signs or other changes. All animals were provided with HydroGel the night prior to their respective dosing days to potentially mitigate any animal welfare issues related to fluid loss/dehydration.
Neurobehavioral evaluations (blinded) were conducted for all study animals 1 hour following the last (4th) cumulative dose of the series. The neurobehavioral parameters evaluated included: activity measurements (arousal/alertness, posture/body carriage, stereotypy, rearing, and appearance), autonomic measurements (exophthalmus, lacrimation, erected fur, pupil response, salivation, defecation, and palpebral closure/ptosis), excitability measurements (vocalizations, startle response, ease of removal, handling reactivity, and convulsions), neuromuscular measurements (gait/mobility, grip strength/response, air righting reflex, tremor, and body tone), physiological measurements (respiration and body temperature), and sensorimotor measurements (touch response/tactile reflex and thermal response).

[4] = Rat brain monoamine and metabolite concentrations 1 week after cumulative SC dosing; conditions: cumulative SC, 1 week after dosing; for frontal cortex 5-HT (serotonin) compared to vehicle: 5 mg/kg
[5] = 1 h after last of 4 hourly SC injections, S-MDMA 5, 10 mg/kg/day
[6] = 1 h after last of 4 hourly SC injections
[7] = 1 h after last of 4 hourly SC injections, racemic MDMA 10, 20 mg/kg/day, S-MDMA 5, 10 mg/kg/day

Chain of Serotonin 5-HT2A (P28223 whole entry): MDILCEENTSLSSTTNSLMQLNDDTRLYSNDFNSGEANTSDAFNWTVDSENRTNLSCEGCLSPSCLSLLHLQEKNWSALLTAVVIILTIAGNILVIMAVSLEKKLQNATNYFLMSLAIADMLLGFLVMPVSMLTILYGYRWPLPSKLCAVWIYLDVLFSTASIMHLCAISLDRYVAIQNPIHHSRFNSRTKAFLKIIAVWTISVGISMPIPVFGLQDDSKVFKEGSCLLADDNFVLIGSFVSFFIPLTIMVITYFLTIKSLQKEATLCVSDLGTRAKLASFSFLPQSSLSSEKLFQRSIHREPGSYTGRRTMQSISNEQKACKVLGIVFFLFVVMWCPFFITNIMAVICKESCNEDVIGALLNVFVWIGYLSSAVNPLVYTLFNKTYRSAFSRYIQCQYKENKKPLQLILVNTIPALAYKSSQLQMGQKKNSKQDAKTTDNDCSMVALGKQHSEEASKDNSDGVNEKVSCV

| SMILES | arousal/alertness and rearing [3, 5] | ease of removal from the home cage and handling reactivity (excitability) [3, 5] | forelimb grip strength [3, 5] | salivation and erected fur (autonomic) [3, 5] | unkempt appearance [3, 5] | stereotypies (mouth movements/weaving, circling/retropulsion, sniffing) [3, 6] | Rank Order Activity Measurement Effects [3] | Rank Order Autonomic Measurement Effects [3] | Rank Order Excitability Measurement Effects [3] | Rank Order Neuromuscular Measurement Effects [3] | Rank Order Physiological Measurement Effects [3] | Rank Order Sensorimotor Measurement Effects [3] | thermal response times [3, 6] | frontal cortex 5-HT (serotonin) compared to vehicle ([4]; 5 mg/kg/injection) | also measured |
| --- | --- | --- | --- | --- | --- | --- | --- | --- | --- | --- | --- | --- | --- | --- | --- |
| CNC(C)Cc1ccc2c(c1)OCO2 (single isomer, unassigned) [R-MDMA, R(−)-3,4-methylenedioxymethamphetamine] | dose-dependent decreases in arousal/alertness and rearing | Dose-dependent increased difficulty in removal from the home cage and increased handling reactivity | dose-dependent statistically significant decreases in forelimb grip strength | Dose-dependent increased salivation and erected fur | increased incidence of unkempt appearance in a dose-dependent manner | No stereotypical behaviors were reported | S-MDMA (5 mg/kg/day) < R-MDMA (10 mg/kg/day) < Rac.-MDMA (10 mg/kg/day); also recorded: Rac.-MDMA (20 mg/kg/day) < S-MDMA (10 mg/kg/day) < R-MDMA (20 mg/kg/day); also recorded: R-MDMA (0 mg/kg/day) < R-MDMA (10 mg/kg/day) < R-MDMA (20 mg/kg/day); also recorded: Rac.-MDMA (20 mg/kg/day) < S-MDMA (10 mg/kg/day) < R-MDMA (10 mg/kg/day) | R-MDMA (10 mg/kg/day) < S-MDMA (5 mg/kg/day) < Rac.-MDMA (10 mg/kg/day); also recorded: R-MDMA (20 mg/kg/day) < S-MDMA (10 mg/kg/day) < Rac-MDMA (20 mg/kg/day); also recorded: R-MDMA (0 mg/kg/day) < R-MDMA (10 mg/kg/day) < R-MDMA (20 mg/kg/day); also recorded: R-MDMA (10 mg/kg/day) < S-MDMA (10 mg/kg/day) = Rac-MDMA (20 mg/kg/day) | R-MDMA (10 mg/kg/day) < S-MDMA (5 mg/kg/day) < Rac.-MDMA (10 mg/kg/day); also recorded: R-MDMA (20 mg/kg/day) = S-MDMA (10 mg/kg/day) < Rac-MDMA (20 mg/kg/day); also recorded: R-MDMA (0 mg/kg/day) < R-MDMA (10 mg/kg/day) < R-MDMA (20 mg/kg/day); also recorded: R-MDMA (10 mg/kg/day) < S-MDMA (10 mg/kg/day) < Rac-MDMA (20 mg/kg/day) | R-MDMA (10 mg/kg/day) < S-MDMA (5 mg/kg/day) < Rac.-MDMA (10 mg/kg/day); also recorded: R-MDMA (20 mg/kg/day) = S-MDMA (10 mg/kg/day) < Rac-MDMA (20 mg/kg/day); also recorded: R-MDMA (0 mg/kg/day) < R-MDMA (10 mg/kg/day) < R-MDMA (20 mg/kg/day); also recorded: R-MDMA (10 mg/kg/day) < S-MDMA (10 mg/kg/day) < Rac-MDMA (20 mg/kg/day) | R-MDMA (10 mg/kg/day) < S-MDMA (5 mg/kg/day) < Rac.-MDMA (10 mg/kg/day); also recorded: R-MDMA (20 mg/kg/day) < S-MDMA (10 mg/kg/day) = Rac-MDMA (20 mg/kg/day); also recorded: R-MDMA (0 mg/kg/day) = R-MDMA (10 mg/kg/day) = R-MDMA (20 mg/kg/day); also recorded: R-MDMA (10 mg/kg/day) < S-MDMA (10 mg/kg/day) = Rac-MDMA (20 mg/kg/day) | S-MDMA (5 mg/kg/day) < Rac-MDMA (10 mg/kg/day) < R-MDMA (10 mg/kg/day); also recorded: S-MDMA (10 mg/kg/day) < Rac-MDMA (20 mg/kg/day) < R-MDMA (20 mg/kg/day); also recorded: R-MDMA (0 mg/kg/day) < R-MDMA (10 mg/kg/day) < R-MDMA (20 mg/kg/day) | Statistically significant increases in thermal response times | did not reduce serotonin content in the frontal cortex | IC50 [1]: 9.91 µM; Ki [1]: 2.83 µM; inhibition at 10 µM [2]: 78%; striatal DA compared to the corresponding vehicle condition ([4]; 5 mg/kg/injection): significantly increased striatal DA; striatal HVA compared to the pooled vehicle condition ([4]; 10 mg/kg/injection, n=2): significantly reduced striatal HVA |
| CNC(C)Cc1ccc2c(c1)OCO2 (single isomer, unassigned) [S-MDMA, S(+)-MDMA] | general increase in overall levels of arousal/alertness and rearing | Dose-dependent increased difficulty in removal from the home cage and increased handling reactivity | dose-dependent statistically significant decreases in forelimb grip strength | Dose-dependent increased salivation and erected fur | increased incidence of unkempt appearance in a dose-dependent manner | observed in animals treated with S-MDMA and racemic-MDMA only at the highest tested doses; also recorded: only one S-MDMA-treated animal was reported with stereotypical behaviors | S-MDMA (5 mg/kg/day) < R-MDMA (10 mg/kg/day) < Rac.-MDMA (10 mg/kg/day); also recorded: Rac.-MDMA (20 mg/kg/day) < S-MDMA (10 mg/kg/day) < R-MDMA (20 mg/kg/day); also recorded: S-MDMA (0 mg/kg/day) < S-MDMA (5 mg/kg/day) < S-MDMA (10 mg/kg/day); also recorded: Rac.-MDMA (20 mg/kg/day) < S-MDMA (10 mg/kg/day) < R-MDMA (10 mg/kg/day) | R-MDMA (10 mg/kg/day) < S-MDMA (5 mg/kg/day) < Rac.-MDMA (10 mg/kg/day); also recorded: R-MDMA (20 mg/kg/day) < S-MDMA (10 mg/kg/day) < Rac-MDMA (20 mg/kg/day); also recorded: S-MDMA (0 mg/kg/day) < S-MDMA (5 mg/kg/day) < S-MDMA (10 mg/kg/day); also recorded: R-MDMA (10 mg/kg/day) < S-MDMA (10 mg/kg/day) = Rac-MDMA (20 mg/kg/day) | R-MDMA (10 mg/kg/day) < S-MDMA (5 mg/kg/day) < Rac.-MDMA (10 mg/kg/day); also recorded: R-MDMA (20 mg/kg/day) = S-MDMA (10 mg/kg/day) < Rac-MDMA (20 mg/kg/day); also recorded: S-MDMA (0 mg/kg/day) < S-MDMA (5 mg/kg/day) < S-MDMA (10 mg/kg/day); also recorded: R-MDMA (10 mg/kg/day) < S-MDMA (10 mg/kg/day) < Rac-MDMA (20 mg/kg/day) | R-MDMA (10 mg/kg/day) < S-MDMA (5 mg/kg/day) < Rac.-MDMA (10 mg/kg/day); also recorded: R-MDMA (20 mg/kg/day) = S-MDMA (10 mg/kg/day) < Rac-MDMA (20 mg/kg/day); also recorded: S-MDMA (0 mg/kg/day) < S-MDMA (5 mg/kg/day) = S-MDMA (10 mg/kg/day); also recorded: R-MDMA (10 mg/kg/day) < S-MDMA (10 mg/kg/day) < Rac-MDMA (20 mg/kg/day) | R-MDMA (10 mg/kg/day) < S-MDMA (5 mg/kg/day) < Rac.-MDMA (10 mg/kg/day); also recorded: R-MDMA (20 mg/kg/day) < S-MDMA (10 mg/kg/day) = Rac-MDMA (20 mg/kg/day); also recorded: S-MDMA (0 mg/kg/day) < S-MDMA (5 mg/kg/day) < S-MDMA (10 mg/kg/day); also recorded: R-MDMA (10 mg/kg/day) < S-MDMA (10 mg/kg/day) = Rac-MDMA (20 mg/kg/day) | S-MDMA (5 mg/kg/day) < Rac-MDMA (10 mg/kg/day) < R-MDMA (10 mg/kg/day); also recorded: S-MDMA (10 mg/kg/day) < Rac-MDMA (20 mg/kg/day) < R-MDMA (20 mg/kg/day); also recorded: S-MDMA (0 mg/kg/day) < S-MDMA (10 mg/kg/day) < S-MDMA (5 mg/kg/day) | Statistically significant increases in thermal response times | significantly decreased frontal cortex 5-HT concentrations | general gait/mobility changes [3, 7]: General gait/mobility changes were only observed; respiration [3, 7]: Rapid respiration was noted |
